Test results from the kinase profiling compilation of Christmann-Franck et al. (2016).

What was measured:
Test in all cases: KINOMEscan competition binding
Settings in all cases: compound 0.5 µM
BMPR1B (human) = BMPR1B (human) (UniProt O00238)
NEK4 (human) = NEK4 (human) (UniProt P51957)
CSNK2A1 (human) = CSNK2A1 (human) (UniProt P68400)
FLT4 (human) = FLT4 (human) (UniProt P35916)
CDK5 (human) = CDK5 (human) (UniProt Q00535)
MST1R (human) = MST1R (human) (UniProt Q04912)
[1] = tested on: KIT (human), P10721 [V559D/V654A]
Chain of KIT (human), P10721 [V559D/V654A] (P10721 whole entry V559D/V654A, looked up): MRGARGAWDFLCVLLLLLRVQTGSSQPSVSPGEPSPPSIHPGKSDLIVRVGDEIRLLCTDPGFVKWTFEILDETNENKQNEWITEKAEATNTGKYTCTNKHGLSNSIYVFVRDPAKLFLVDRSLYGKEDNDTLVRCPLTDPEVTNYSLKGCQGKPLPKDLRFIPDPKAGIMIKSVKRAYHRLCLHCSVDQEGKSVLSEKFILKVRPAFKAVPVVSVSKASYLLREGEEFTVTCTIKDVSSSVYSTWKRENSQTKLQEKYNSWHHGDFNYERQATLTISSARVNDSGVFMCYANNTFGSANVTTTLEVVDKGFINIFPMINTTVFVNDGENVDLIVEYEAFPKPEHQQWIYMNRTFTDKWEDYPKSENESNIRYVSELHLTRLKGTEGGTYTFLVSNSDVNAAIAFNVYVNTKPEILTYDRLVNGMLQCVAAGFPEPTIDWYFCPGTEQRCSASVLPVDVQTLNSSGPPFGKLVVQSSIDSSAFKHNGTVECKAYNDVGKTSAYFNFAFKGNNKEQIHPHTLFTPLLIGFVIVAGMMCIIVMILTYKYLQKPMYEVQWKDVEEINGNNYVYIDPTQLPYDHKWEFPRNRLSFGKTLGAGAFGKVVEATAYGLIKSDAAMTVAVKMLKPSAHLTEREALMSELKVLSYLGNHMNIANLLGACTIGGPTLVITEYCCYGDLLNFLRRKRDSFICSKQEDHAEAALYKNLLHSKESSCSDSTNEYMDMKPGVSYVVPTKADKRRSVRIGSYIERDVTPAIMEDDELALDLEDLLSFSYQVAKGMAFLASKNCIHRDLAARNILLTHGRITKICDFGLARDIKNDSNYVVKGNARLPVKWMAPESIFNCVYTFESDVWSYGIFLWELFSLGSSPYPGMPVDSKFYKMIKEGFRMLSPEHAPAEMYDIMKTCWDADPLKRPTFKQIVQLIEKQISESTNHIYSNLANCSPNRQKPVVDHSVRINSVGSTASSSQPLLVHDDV

DCLK3 (human) = DCLK3 (human) (UniProt Q9C098)
EPHA1 (human) = EPHA1 (human) (UniProt P21709)
EPHB1 (human) = EPHB1 (human) (UniProt P54762)
CDK11B (human) = CDK11B (human) (UniProt P21127)
IGF1R (human) = IGF1R (human) (UniProt P08069)
TXK (human) = TXK (human) (UniProt P42681)
MAPKAPK2 (human) = MAPKAPK2 (human) (UniProt P49137)
NEK3 (human) = NEK3 (human) (UniProt P51956)
LIMK2 (human) = LIMK2 (human) (UniProt P53671)
MKNK2 (human) = MKNK2 (human) (UniProt Q9HBH9)
PRKX (human) = PRKX (human) (UniProt P51817)
MAP3K12 (human) = MAP3K12 (human) (UniProt Q12852)
MAP3K6 (human) = MAP3K6 (human) (UniProt O95382)
Chain of MAP3K6 (human) (O95382 whole entry, looked up): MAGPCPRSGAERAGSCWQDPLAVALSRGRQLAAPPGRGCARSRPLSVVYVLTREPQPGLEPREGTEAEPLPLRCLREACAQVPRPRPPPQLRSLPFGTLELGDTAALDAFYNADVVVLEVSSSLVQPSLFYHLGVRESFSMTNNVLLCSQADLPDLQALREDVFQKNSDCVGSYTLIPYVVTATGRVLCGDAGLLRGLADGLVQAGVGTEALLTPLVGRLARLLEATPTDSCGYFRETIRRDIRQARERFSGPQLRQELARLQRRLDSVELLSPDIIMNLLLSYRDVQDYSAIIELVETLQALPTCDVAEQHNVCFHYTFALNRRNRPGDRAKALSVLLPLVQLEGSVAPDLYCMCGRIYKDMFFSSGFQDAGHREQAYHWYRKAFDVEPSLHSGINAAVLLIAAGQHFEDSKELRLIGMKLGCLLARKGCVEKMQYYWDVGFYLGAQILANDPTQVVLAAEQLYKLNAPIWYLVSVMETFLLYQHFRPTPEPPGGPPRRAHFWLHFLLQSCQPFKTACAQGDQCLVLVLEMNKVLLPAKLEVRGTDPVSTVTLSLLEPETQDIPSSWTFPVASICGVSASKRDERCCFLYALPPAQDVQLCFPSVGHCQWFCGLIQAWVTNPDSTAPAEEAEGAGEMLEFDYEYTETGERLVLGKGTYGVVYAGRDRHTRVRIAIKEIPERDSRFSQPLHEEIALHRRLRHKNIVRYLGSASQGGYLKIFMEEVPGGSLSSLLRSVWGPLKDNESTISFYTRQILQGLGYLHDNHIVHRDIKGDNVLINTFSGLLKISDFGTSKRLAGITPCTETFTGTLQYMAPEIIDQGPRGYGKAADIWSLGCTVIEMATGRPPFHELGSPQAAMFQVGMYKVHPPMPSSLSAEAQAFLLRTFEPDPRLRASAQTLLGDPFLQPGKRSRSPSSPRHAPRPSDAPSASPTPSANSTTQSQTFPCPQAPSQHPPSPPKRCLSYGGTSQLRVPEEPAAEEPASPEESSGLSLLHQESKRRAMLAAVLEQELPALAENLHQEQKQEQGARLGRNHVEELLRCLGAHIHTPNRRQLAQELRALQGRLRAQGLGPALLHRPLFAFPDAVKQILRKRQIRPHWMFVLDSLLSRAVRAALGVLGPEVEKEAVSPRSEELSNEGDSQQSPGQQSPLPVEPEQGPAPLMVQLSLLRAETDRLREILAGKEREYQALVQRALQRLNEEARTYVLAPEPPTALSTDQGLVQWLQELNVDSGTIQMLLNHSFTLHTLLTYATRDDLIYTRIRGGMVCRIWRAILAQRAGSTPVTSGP

SRPK3 (human) = SRPK3 (human) (UniProt Q9UPE1)
[2] = tested on: PIK3CA (human), P42336 [C420R]
MAP2K1 (human) = MAP2K1 (human) (UniProt Q02750)
CDKL3 (human) = CDKL3 (human) (UniProt Q8IVW4)
Chain of CDKL3 (human) (Q8IVW4 whole entry, looked up): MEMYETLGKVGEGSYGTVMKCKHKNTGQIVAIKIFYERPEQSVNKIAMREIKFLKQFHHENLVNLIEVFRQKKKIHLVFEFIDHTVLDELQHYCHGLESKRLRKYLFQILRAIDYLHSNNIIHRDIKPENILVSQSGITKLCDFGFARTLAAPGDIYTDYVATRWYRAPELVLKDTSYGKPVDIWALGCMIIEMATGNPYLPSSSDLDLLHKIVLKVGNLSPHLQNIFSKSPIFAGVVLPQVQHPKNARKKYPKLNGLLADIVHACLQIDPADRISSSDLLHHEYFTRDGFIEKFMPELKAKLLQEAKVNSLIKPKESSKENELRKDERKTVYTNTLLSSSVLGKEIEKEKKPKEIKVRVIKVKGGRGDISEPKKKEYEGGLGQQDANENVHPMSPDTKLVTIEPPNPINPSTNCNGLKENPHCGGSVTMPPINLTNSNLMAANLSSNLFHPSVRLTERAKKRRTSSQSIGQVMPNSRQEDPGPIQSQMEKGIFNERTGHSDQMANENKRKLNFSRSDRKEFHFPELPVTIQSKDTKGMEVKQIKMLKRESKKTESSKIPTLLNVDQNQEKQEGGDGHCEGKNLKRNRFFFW

PRKCI (human) = PRKCI (human) (UniProt P41743)
MAPK1 (human) = MAPK1 (human) (UniProt P28482)
Chain of MAPK1 (human) (P28482 whole entry, looked up): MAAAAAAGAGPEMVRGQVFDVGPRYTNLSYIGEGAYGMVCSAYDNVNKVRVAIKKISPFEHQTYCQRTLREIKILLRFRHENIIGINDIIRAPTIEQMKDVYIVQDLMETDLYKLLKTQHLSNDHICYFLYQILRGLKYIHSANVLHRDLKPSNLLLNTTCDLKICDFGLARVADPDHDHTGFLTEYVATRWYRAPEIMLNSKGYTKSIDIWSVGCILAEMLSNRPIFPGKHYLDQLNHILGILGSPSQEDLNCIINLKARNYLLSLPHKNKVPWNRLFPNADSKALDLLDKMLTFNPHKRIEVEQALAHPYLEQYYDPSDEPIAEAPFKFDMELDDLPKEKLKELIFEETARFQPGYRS

STK17A (human) = STK17A (human) (UniProt Q9UEE5)
MYLK4 (human) = MYLK4 (human) (UniProt Q86YV6)
CAMK1D (human) = CAMK1D (human) (UniProt Q8IU85)
STK33 (human) = STK33 (human) (UniProt Q9BYT3)
CDK14 (human) = CDK14 (human) (UniProt O94921)
[3] = tested on: ABL1 (human), P00519 [Y253F]
RPS6KB1 (human) = RPS6KB1 (human) (UniProt P23443)
AXL (human) = AXL (human) (UniProt P30530)
EPHB6 (human) = EPHB6 (human) (UniProt O15197)
STK16 (human) = STK16 (human) (UniProt O75716)
Chain of STK16 (human) (O75716 whole entry, looked up): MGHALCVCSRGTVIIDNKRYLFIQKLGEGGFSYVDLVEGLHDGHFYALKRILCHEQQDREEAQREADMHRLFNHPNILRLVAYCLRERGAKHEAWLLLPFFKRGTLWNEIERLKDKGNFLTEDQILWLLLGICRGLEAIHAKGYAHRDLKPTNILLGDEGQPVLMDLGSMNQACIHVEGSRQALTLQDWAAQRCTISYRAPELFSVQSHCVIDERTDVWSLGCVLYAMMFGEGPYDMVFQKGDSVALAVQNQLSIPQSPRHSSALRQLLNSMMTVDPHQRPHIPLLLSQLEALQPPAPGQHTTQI

PKN1 (human) = PKN1 (human) (UniProt Q16512)
[4] = tested on: MET (human), P08581 [M1250T]
MAP3K2 (human) = MAP3K2 (human) (UniProt Q9Y2U5)
MAP3K9 (human) = MAP3K9 (human) (UniProt P80192)
Chain of MAP3K9 (human) (P80192 whole entry, looked up): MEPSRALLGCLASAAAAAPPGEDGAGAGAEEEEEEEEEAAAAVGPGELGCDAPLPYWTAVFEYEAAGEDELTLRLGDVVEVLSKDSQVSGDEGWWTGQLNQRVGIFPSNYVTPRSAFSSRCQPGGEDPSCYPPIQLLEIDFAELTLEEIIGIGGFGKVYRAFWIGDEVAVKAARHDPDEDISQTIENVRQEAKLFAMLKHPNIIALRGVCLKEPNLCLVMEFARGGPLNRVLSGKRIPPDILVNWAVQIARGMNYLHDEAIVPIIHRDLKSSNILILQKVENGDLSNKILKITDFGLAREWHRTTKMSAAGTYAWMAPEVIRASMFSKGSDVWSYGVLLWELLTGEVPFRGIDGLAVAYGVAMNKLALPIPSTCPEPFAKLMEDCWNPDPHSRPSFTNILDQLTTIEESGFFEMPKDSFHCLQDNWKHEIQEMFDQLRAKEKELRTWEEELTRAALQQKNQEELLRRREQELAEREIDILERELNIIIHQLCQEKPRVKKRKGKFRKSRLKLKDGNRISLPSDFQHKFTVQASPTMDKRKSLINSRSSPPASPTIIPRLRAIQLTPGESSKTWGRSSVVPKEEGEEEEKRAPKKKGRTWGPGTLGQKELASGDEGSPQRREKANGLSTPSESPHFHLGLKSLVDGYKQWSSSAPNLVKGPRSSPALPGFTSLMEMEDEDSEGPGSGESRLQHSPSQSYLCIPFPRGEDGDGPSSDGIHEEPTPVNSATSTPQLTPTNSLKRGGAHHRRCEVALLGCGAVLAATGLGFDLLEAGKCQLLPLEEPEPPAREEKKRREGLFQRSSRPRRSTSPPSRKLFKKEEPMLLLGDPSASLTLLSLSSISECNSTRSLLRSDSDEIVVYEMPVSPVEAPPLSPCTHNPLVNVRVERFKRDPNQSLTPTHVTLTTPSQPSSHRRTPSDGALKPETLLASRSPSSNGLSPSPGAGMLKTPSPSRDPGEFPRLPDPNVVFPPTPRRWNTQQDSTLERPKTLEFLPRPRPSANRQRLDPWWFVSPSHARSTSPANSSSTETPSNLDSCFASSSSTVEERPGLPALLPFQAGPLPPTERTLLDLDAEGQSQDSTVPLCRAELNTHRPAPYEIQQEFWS

Chain of CSNK2A1 (human) (P68400 whole entry, looked up): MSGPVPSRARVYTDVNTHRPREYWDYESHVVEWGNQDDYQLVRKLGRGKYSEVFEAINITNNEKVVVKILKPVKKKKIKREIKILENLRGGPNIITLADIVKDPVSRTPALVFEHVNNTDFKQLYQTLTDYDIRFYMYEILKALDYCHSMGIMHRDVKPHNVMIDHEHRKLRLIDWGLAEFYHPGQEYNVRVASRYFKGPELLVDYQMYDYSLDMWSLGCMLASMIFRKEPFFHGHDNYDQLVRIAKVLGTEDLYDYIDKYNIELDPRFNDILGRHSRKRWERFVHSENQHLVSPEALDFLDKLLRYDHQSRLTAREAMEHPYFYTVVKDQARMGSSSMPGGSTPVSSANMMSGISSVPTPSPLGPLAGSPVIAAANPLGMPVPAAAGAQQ

Q: How did the kinase still bound, per cent of control (BMPR1B (human)) turn out when `Cn1c2ccccc2c2c3c(c4c5ccccc5n(CCC#N)c4c21)CNC3=O` was run?
A: 56%

Q: And the kinase still bound, per cent of control (NEK4 (human))?
A: 100%

Q: What about the kinase still bound, per cent of control (CSNK2A1 (human)) of the same molecule?
A: 80%

Q: What about the kinase still bound, per cent of control (FLT4 (human)) of the same molecule?
A: 62%

Q: What about the kinase still bound, per cent of control (CDK5 (human)) of the same molecule?
A: 61%

Q: What about the kinase still bound, per cent of control (MST1R (human)) of the same molecule?
A: 100%

Q: And the kinase still bound, per cent of control [1]?
A: 100%

Q: What about the kinase still bound, per cent of control (DCLK3 (human)) of the same molecule?
A: 100%

Q: What about the kinase still bound, per cent of control (EPHA1 (human)) of the same molecule?
A: 97%

Q: What about the kinase still bound, per cent of control (EPHB1 (human)) of the same molecule?
A: 97%

Q: What about the kinase still bound, per cent of control (CDK11B (human)) of the same molecule?
A: 100%

Q: And the kinase still bound, per cent of control (IGF1R (human))?
A: 85%

Q: And the kinase still bound, per cent of control (TXK (human))?
A: 11%

Q: And the kinase still bound, per cent of control (MAPKAPK2 (human))?
A: 100%

Q: And the kinase still bound, per cent of control (NEK3 (human))?
A: 100%

Q: What about the kinase still bound, per cent of control (LIMK2 (human)) of the same molecule?
A: 100%

Q: What about the kinase still bound, per cent of control (MKNK2 (human)) of the same molecule?
A: 11%

Q: And the kinase still bound, per cent of control (PRKX (human))?
A: 53%

Q: And the kinase still bound, per cent of control (MAP3K12 (human))?
A: 89%

Q: And the kinase still bound, per cent of control (MAP3K6 (human))?
A: 62%

Q: What about the kinase still bound, per cent of control (SRPK3 (human)) of the same molecule?
A: 3.8%

Q: And the kinase still bound, per cent of control [2]?
A: 46%

Q: And the kinase still bound, per cent of control (MAP2K1 (human))?
A: 71%

Q: What about the kinase still bound, per cent of control (CDKL3 (human)) of the same molecule?
A: 91%

Q: And the kinase still bound, per cent of control (PRKCI (human))?
A: 86%

Q: And the kinase still bound, per cent of control (MAPK1 (human))?
A: 100%

Q: What about the kinase still bound, per cent of control (STK17A (human)) of the same molecule?
A: 71%

Q: And the kinase still bound, per cent of control (MYLK4 (human))?
A: 17%

Q: And the kinase still bound, per cent of control (CAMK1D (human))?
A: 93%

Q: What about the kinase still bound, per cent of control (STK33 (human)) of the same molecule?
A: 1.5%

Q: What about the kinase still bound, per cent of control (CDK14 (human)) of the same molecule?
A: 100%

Q: And the kinase still bound, per cent of control [3]?
A: 100%

Q: And the kinase still bound, per cent of control (RPS6KB1 (human))?
A: 23%

Q: What about the kinase still bound, per cent of control (AXL (human)) of the same molecule?
A: 72%

Q: And the kinase still bound, per cent of control (EPHB6 (human))?
A: 50%

Q: What about the kinase still bound, per cent of control (STK16 (human)) of the same molecule?
A: 84%

Q: What about the kinase still bound, per cent of control (PKN1 (human)) of the same molecule?
A: 9.4%

Q: What about the kinase still bound, per cent of control [4] of the same molecule?
A: 100%

Q: What about the kinase still bound, per cent of control (MAP3K2 (human)) of the same molecule?
A: 0.1%

Q: What about the kinase still bound, per cent of control (MAP3K9 (human)) of the same molecule?
A: 0.65%
